US7968552B2, “Oxadiazolidinedione compound” (Astellas Pharma Inc., priority 2006, dated 2011)

What was measured:
[1] = system: blood glucose after glucose loading; assay: Normal mice single oral glucose tolerance test; format: in vivo; conditions: Mus musculus, 0.5 h, male ICR mice, 10 mg/kg orally 30 minutes before glucose loading (2 g/kg), 30 minutes after glucose loading, based on control group, read-out: Blood glucose lowering ratio
Method: Test Method 3: Normal Mice Single Oral Glucose Tolerance Test
This test examined on the blood glucose suppression action of compounds to be tested after glucose loading, using normal mice. The test method is shown below.
Male ICR mice (6 weeks of age) after 1 week of preliminary rearing were subjected to overnight fasting and used as the animals to be tested. Each compound to be tested was made into a 0.5% methyl cellulose suspension and orally administered at a dose of 10 mg/kg 30 minutes before the glucose loading (2 g/kg). Administration of 0.5% methyl cellulose was used in the control group. Blood glucose lowering ratio (%) after 30 minutes of glucose loading was calculated based on the control group.

human GPR40 = biological target: T1, human GPR40 (Homo sapiens, UniProt O14842, R211H); assay: Measurement of GPR40 agonist action (FLIPR, intracellular calcium); format: cell-based; conditions: CHO cell strain expressing human GPR40; changes in fluorescence intensity after 1 minute of the measurement
T1 construct: expressed in transfected cells
T1 sequence (O14842 whole entry R211H): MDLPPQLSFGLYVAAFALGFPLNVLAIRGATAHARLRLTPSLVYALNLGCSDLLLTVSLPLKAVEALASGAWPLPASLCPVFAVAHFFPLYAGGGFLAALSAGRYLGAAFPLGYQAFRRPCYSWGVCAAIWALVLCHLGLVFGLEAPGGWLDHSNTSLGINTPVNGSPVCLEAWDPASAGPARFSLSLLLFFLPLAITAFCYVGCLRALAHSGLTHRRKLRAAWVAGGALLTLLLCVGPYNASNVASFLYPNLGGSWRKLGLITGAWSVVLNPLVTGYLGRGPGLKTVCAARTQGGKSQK
Excerpt: Test Method 1: Measurement of GPR40 Agonist Action […]
i) Cloning of Human GPR40
Complete length sequence of GPR40 was obtained by carrying out a PCR method in accordance with the procedure shown below using a human genomic DNA (Clontech) as the template.
An oligonucleotide consisting of the nucleotide sequence represented by SEQ ID NO:1 was used as the forward primer, and an oligonucleotide consisting of the nucleotide sequence represented by SEQ ID NO:2 as the reverse primer. In this connection, a nucleotide sequence comprising a XbaI recognition region is added to the respective 5′-termini of the aforementioned forward primer and reverse primer. PCR was carried out in the presence of 5% dimethyl sulfoxide (DMSO) using a Taq DNA polymerase (Ex Taq DNA polymerase; Takara Bio), by repeating 30 times of a cycle consisting of 94° C. (15 seconds)/55° C. (30 seconds)/72° C. (1 minute). As a result, a DNA fragment of about 0.9 kbp was amplified. This DNA fragment was digested with XbaI and then inserted into the XbaI site of a plasmid pEF-BOS-dhfr (Nucleic acids Research, 18, 5322, 1990), thereby obtaining a plasmid pEF-BOS-dhfr-GPR40.
Nucleotide sequence of the GPR40 gene in the pEF-BOS-dhfr-GPR40 was determined by the dideoxy terminator method using a DNA sequencer (ABI 377 DNA Sequencer, Applied Biosystems). Nucleotide sequence of the GPR40 gene was as the nucleotide sequence represented by SEQ ID NO:3. The nucleotide sequence represented by SEQ ID NO:3 has an open reading frame (ORF) of 903 bases, and the amino acid sequence deduced from this ORF (300 amino acids) was as the amino acid sequence represented by SEQ ID NO:4. […]
ii) Preparation of GPR40 Stable Expression Cell
As the cell for expressing GPR protein, CHO dhfr cell (a dihydrofolate reductase (dhfr)-deficient CHO cell) was used. Also, as the plasmid for expressing GPR40 protein, the plasmid pEF-BOS-dhfr-GPR40 obtained in the aforementioned i) was used. The CHO dhfr cell was inoculated into αMEM medium containing 10% fetal calf serum (FCS) using a 6 well plate (Asahi Techno Glass) and cultured overnight to an 80 to 90% confluence, and then 2 μg per well of the plasmid pEF-BOS-dhfr-GPR40 was gene-transferred using a transfection reagent (Lipofectamine 2000; Invitrogen). After 24 hours of culturing from the gene transfer, the cells were diluted and inoculated again. […] After 20 days of culturing, the thus formed colonies of cells were individually recovered and cultured to obtain CHO cells stably expressing GPR40. From these, cells having high reactivity for intrinsic ligands oleic acid and linoleic acid were selected. […]
iii) Measurement of GPR40 Agonist Action
This test was measured by FLIPR (registered trademark, Molecular Device) using a change in intracellular calcium concentration as the index. The test method is shown in the following.
A CHO cell strain in which human GPR40 was expressed was inoculated into a 384 well black plate (Becton Dickinson) in 6×10^3 cells per well portions and cultured overnight in a CO2 incubator.
Using Calcium-3 assay kit (Molecular Device), one bottle of the phosphorescent pigment was dissolved in 10 ml of HBSS-HBEPES buffer (pH 7.4, 1×HBSS, 20 mM HEPES, Invitrogen). A 35.68 mg of probenecid (Sigma) was dissolved in 250 μl of 1M NaOH and adjusted by adding 250 μl of the HBSS-HEPES buffer. A phosphorescent pigment solution was prepared by mixing 16 ml of HBSS-HEPES buffer, 640 μl of the phosphorescent pigment and 32 μl of probenecid per one plate. The medium was discarded from the plate, and the phosphorescent pigment solution was dispensed in 40 μl per well portions and then incubated at room temperature for 2 hours. Each compound to be tested was dissolved in DMSO and then diluted with HBSS-HEPES buffer and dispensed in 10 μl portions into the plate, thereby starting the reaction, and changes in the intracellular calcium concentration were measured by FLIPR. […]

MIN6 cell = assay: Insulin secretion-promoting action using MIN6 cell; parameters: species or system mouse; conditions: relative activity value at 1 μM of each compound, based on 100% control (DMSO), 2 hours incubation
Method: Test Method 2: Insulin Secretion-Promoting Action Using MIN6 Cell
This rest examined insulin acceleration action of compounds to be tested using a mouse pancreas β cell strain, MIN6 cell. The test method is shown in the following.
The MIN6 cell was dispensed in 5×10^4 cells/well (200 μl) portions into a 96 well plate. DMEM (25 mM glucose) containing 10% FBS, 55 μM 2-mercaptoethanol, 100 U/ml penicillin and 100 μg/ml streptomycin was used as the medium. The medium was discarded 2 days thereafter using an aspirator, followed by washing once with 200 μl of KRB-HEPES (116 mM NaCl, 4.7 mM KCl, 1.2 mM KH2PO4, 1.2 mM MgSO4, 0.25 mM CaCl2, 25 mM NaHCO3, 0.005% FFA Free BSA, 24 mM HEPES (pH 7.4)) containing 2.8 mM glucose, which was warmed up to 37° C., and subsequent incubation again at 37° C. for 1 hour by adding 200 μl of the same buffer. After discarding the above-mentioned buffer using an aspirator and again washing with the buffer (200 μl), a predetermined concentration of a compound to be tested was added to the KRB-HEPES containing 2.8 mM or 22.4 mM glucose and added to respective wells in 100 μl portions and incubated at 37° C. for 2 hours. The above-mentioned samples were fractioned and diluted 100 times, and the insulin concentration was determined using an insulin RIA kit (Amersham RI). The activity value was shown by a relative activity value (%) at the time of 1 μM of each compound, based on 100% control (DMSO).

SMILES | inhibition in vivo at 10 mg/kg [1] | EC50 (human GPR40) | Insulin secretion-accelerating action (MIN6 cell)
COc1cccc(OC)c1-c1cccc(COc2ccc(Cn3oc(=O)[nH]c3=O)cc2)c1 [Example 56] | 31% | 0.76 µM | –
Cc1cc(OCCC(C)(C)O)cc(C)c1-c1cccc(COc2ccc(Cn3oc(=O)[nH]c3=O)cc2)c1C [Example 166] | 35% | 0.22 µM | –
COc1cc(C)c(-c2cccc(COc3ccc(Cn4oc(=O)[nH]c4=O)cc3)c2)c(C)c1 [Example 47] | 36% | 0.42 µM | –
Cc1cc(C(=O)NC2CCOCC2)ccc1-c1cccc(COc2ccc(Cn3oc(=O)[nH]c3=O)cc2)c1 [Example 117] | 21% | 0.29 µM | –
CCOCCOc1cc(C)c(-c2cccc(COc3ccc(Cn4oc(=O)[n-]c4=O)cc3)c2)c(C)c1.[Na+] [Example 44] | 21% | 0.67 µM | 287%
N#Cc1ccc(-c2cccc(COc3ccc(Cn4oc(=O)[nH]c4=O)cc3)c2)cc1 [Example 34] | – | – | 169%
CC(=O)NCCCOc1ccc(-c2cccc(COc3ccc(Cn4oc(=O)[nH]c4=O)cc3)c2C)c(C)c1 [Example 189] | 30% | 0.059 µM | –
Cc1cc(OS(C)(=O)=O)cc(C)c1-c1cccc(COc2ccc(Cn3oc(=O)[nH]c3=O)cc2)c1 [Example 119] | 22% | 0.22 µM | –
O=c1[nH]c(=O)n(Cc2ccc(OCc3cccc(-c4cccnc4)c3)cc2)o1 [Example 33] | – | 0.64 µM | –
Cc1cc(OCCO)ccc1-c1cccc(COc2ccc(Cn3oc(=O)[nH]c3=O)cc2)c1 [Example 14, sodium 2-(4-{[4′-(2-hydroxyethoxy)-2′-methylbiphenyl-3-yl]methoxy}benzyl)-3,5-dioxo-1,2,4-oxadiazolidin-4-ide] | 34% | 0.39 µM | –
Cc1cc(OCC[C@H](C)O)cc(C)c1-c1cccc(COc2ccc(Cn3oc(=O)[nH]c3=O)cc2)c1C [Example 193] | 46% | 0.52 µM | –
Cc1cc(OCC[C@H](C)O)ccc1-c1cccc(COc2ccc(Cn3oc(=O)[nH]c3=O)cc2)c1C [Example 173] | 21% | 0.66 µM | –
Cc1cccc(C)c1-c1cccc(COc2ccc(Cn3oc(=O)[n-]c3=O)cc2)c1.[Na+] [Example 39] | 26% | 0.26 µM | 192%
O=c1[nH]c(=O)n(Cc2ccc(OCc3cccc(-c4ccc(OCCO)cc4)c3)cc2)o1 [Example 8] | – | 0.031 µM | –
COc1cc(F)c(-c2cccc(COc3ccc(Cn4oc(=O)[n-]c4=O)cc3)c2)c(F)c1.[Na+] [Example 4, sodium 2-{4-[(2′,6′-difluoro-4′-methoxybiphenyl-3-yl)methoxy]benzyl}-3,5-dioxo-1,2,4-oxadiazolidin-4-ide] | – | 0.35 µM | 177%
Cc1cccc(C)c1-c1cccc(CNc2ccc(Cn3oc(=O)[nH]c3=O)cc2)c1 [Example 406] | 42% | 0.12 µM | –
O=c1[nH]c(=O)n(Cc2ccc(OCc3cccc(-c4c(Cl)cccc4Cl)c3)cc2)o1 [Example 60] | 35% | 0.46 µM | –
Cc1cccc(C)c1-c1cncc(COc2ccc(Cn3oc(=O)[nH]c3=O)cc2)c1 [Example 82] | – | 0.93 µM | –
Cc1cccc(C)c1-c1cccc(COc2ccc(Cn3oc(=O)[nH]c3=O)cn2)c1 [Example 99] | – | 0.45 µM | –
O=c1[nH]c(=O)n(Cc2ccc(OCc3cccc(Br)c3)cc2)o1 [Example 9, 2-{4-[(3-bromobenzyl)oxy]benzyl}-1,2,4-oxadiazolidine-3,5-dione] | – | 0.8 µM | –
O=c1[n-]c(=O)n(Cc2ccc(OCc3cccc(Oc4ccccc4)c3)cc2)o1.[Na+] [Example 38] | – | 0.65 µM | 228%
Cc1cccc(C)c1-c1cccc(C(=O)Nc2ccc(Cn3oc(=O)[nH]c3=O)cc2)c1 [Example 16, sodium 2-(4-{[(2′,6′-dimethylbiphenyl-3-yl)carbonyl]amino}benzyl)-3,5-dioxo-1,2,4-oxadiazolidin-4-ide] | – | 0.45 µM | –
